Measured values reported in patent US20160046616A1, “NRF2 SMALL MOLECULE INHIBITORS FOR CANCER THERAPY” (THE JOHNS HOPKINS UNIVERSITY, priority 2013, published 2016).

Columns and labels:
[1] = system: A549 NRF2-ARE-Fluc stable cell line; experiment: A549 Nrf2 assay: NRF2-ARE firefly luciferase reporter gene assay; assay type: cell-based; settings: Homo sapiens, read-out: Potency of inhibition, A549
How it was run: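 A549 cells (Keap1 loss-of-function, constitutive NRF2) stably carrying ARE-driven firefly luciferase; compound treatment 18–24 h at 37 °C, 0.46% DMSO final.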

[2] = system: H1437 NRF2-ARE-Fluc stable cell line; experiment: H1437 Nrf2 assay: NRF2-ARE firefly luciferase reporter gene assay; assay type: cell-based; settings: Homo sapiens, NCI-H1437, H1437 NRF2-ARE-Fluc stable cell line; read-out: Potency of inhibition, H1437

SMILES | IC50 [1] | IC50 [2]
Cc1cccc(Cn2ccc(C(=O)Nc3ncc(Cc4ccc(C(F)(F)F)cc4)s3)n2)c1 [Compound 189] | 5 to 25 µM | < 5 µM
Cc1nccc(Cn2ccc(C(=O)Nc3ncc(Cc4ccc(C(F)(F)F)cc4)s3)n2)n1 [Compound 190] | 5 to 25 µM | 5 to 25 µM
O=C(Nc1ncc(Cc2ccc(C(F)(F)F)cc2)s1)c1ccn(Cc2ccccn2)n1 [Compound 192] | > 25 µM | > 25 µM
Cc1cc(C(=O)Nc2ncc(Cc3ccc(C(F)(F)F)cc3)s2)nn1CCN1CCOCC1 [Compound 194] | 5 to 25 µM | 5 to 25 µM
CC(=O)N1CCN(Cc2ccc(C(=O)Nc3ccc(S(=O)(=O)N4CCOCC4)cc3)cc2)CC1 [Compound 201] | 5 to 25 µM | 5 to 25 µM
CCOC(=O)N1CCN(Cc2ccc(C(=O)Nc3ccc([S+](=O)([O-])N4CCOCC4)cc3)cc2)CC1 [Compound 202] | 5 to 25 µM | 5 to 25 µM
O=C(Nc1ccc(S(=O)(=O)N2CCOCC2)cc1)c1ccc(CN2CCCC(c3ccccc3)C2)cc1 (centres unmarked) [Compound 207] | 5 to 25 µM | 5 to 25 µM
Cc1ccccc1C(=O)N1CCc2cc(-c3nc(NC(=O)C(C)(C)C)sc3C)ccc21 [Compound 209] | 5 to 25 µM | < 5 µM
O=C(Nc1ccc(S(=O)(=O)N2CCOCC2)cc1)c1cccc(CN2CCc3ccccc3C2)c1 [Compound 211] | 5 to 25 µM | 5 to 25 µM
Cc1ccc(Cc2cnc(NC(=O)c3ccn(-c4ccccc4)n3)s2)o1 [Compound 213] | 5 to 25 µM | 5 to 25 µM
Cc1ccccc1Cc1cnc(NC(=O)c2ccn(-c3ccccc3)n2)s1 [Compound 214] | 5 to 25 µM | 5 to 25 µM
O=C(Nc1ncc(Cc2ccccc2Cl)s1)c1ccn(-c2ccccc2)n1 [Compound 216] | 5 to 25 µM | 5 to 25 µM
Cc1cccc(Cc2cnc(NC(=O)c3ccn(-c4ccccc4)n3)s2)c1 [Compound 217] | 5 to 25 µM | 5 to 25 µM
O=C(Nc1ncc(Cc2cccc(F)c2)s1)c1ccn(-c2ccccc2)n1 [Compound 218] | 5 to 25 µM | < 5 µM
O=C(Nc1ncc(Cc2cccc(Cl)c2)s1)c1ccn(-c2ccccc2)n1 [Compound 220] | 5 to 25 µM | < 5 µM
Cc1ccc(Cc2cnc(NC(=O)c3ccn(-c4ccccc4)n3)s2)cc1 [Compound 221] | 5 to 25 µM | 5 to 25 µM

SMILES | IC50 [1] | IC50 [2]
O=C(Nc1ncc(Cc2ccc(F)cc2)s1)c1ccn(-c2ccccc2)n1 [Compound 222] | < 5 µM | < 5 µM
COc1ccc(Cc2cnc(NC(=O)c3ccn(-c4ccccc4)n3)s2)cc1 [Compound 223] | 5 to 25 µM | 5 to 25 µM
O=C(Nc1ncc(Cc2ccc(Cl)cc2)s1)c1ccn(-c2ccccc2)n1 [Compound 224] | < 5 µM | < 5 µM
CC(=O)N1CCN(CC(=O)Nc2nc(-c3ccc4c(c3)CCN4C(=O)c3ccccc3C)c(C)s2)CC1 [Compound 227] | 5 to 25 µM | 5 to 25 µM
CCOC(=O)N1CCN(CC(=O)Nc2nc(-c3ccc4c(c3)CCN4C(=O)c3ccccc3C)c(C)s2)CC1 [Compound 228] | < 5 µM | < 5 µM
Cc1ccccc1C(=O)N1CCc2cc(-c3nc(NC(=O)CN4CCN(c5ccccc5)CC4)sc3C)ccc21 [Compound 229] | < 5 µM | < 5 µM
CC1c2ccccc2CCN1Cc1ccc(C(=O)Nc2ccc(S(=O)(=O)N3CCOCC3)cc2)cc1 (centres unmarked) [Compound 230] | < 5 µM | < 5 µM
O=C(Nc1ncc(Cc2ccc(C(F)(F)F)cc2)s1)c1ccn(CCN2CCOCC2)n1 [Compound 231] | 5 to 25 µM | < 5 µM
COc1ccc(CC(=O)Nc2nc(-c3ccc4c(c3)CC(C)N4C(=O)c3ccccc3C)c(C)s2)cc1 (centres unmarked) [Compound 232] | 5 to 25 µM | 5 to 25 µM
COc1ccc(CC(=O)Nc2nc(-c3ccc4c(c3)CCN4C(=O)c3ccc(C4(C(F)(F)F)N=N4)cc3)c(C)s2)cc1 [Compound 233] | 5 to 25 µM | 5 to 25 µM
Cc1ccccc1C(=O)N1CCc2cc(-c3nc(NC(=O)Cc4cccc(O)c4)sc3C)ccc21 [Compound 234, 2-(3-hydroxyphenyl)-N-(5-methyl-4-(1-(2-methylbenzoyl)indolin-5-yl)thiazol-2-yl)acetamide] | 5 to 25 µM | 5 to 25 µM
Cc1ccccc1C(=O)N1CCc2cc(-c3nc(NC(=O)Cc4ccc(O)cc4)sc3C)ccc21 [Compound 235, 2-(4-hydroxyphenyl)-N-(5-methyl-4-(1-(2-methylbenzoyl)indolin-5-yl)thiazol-2-yl)acetamide] | 5 to 25 µM | 5 to 25 µM
Cc1ccccc1C(=O)N1CCc2cc(-c3nc(NC(=O)Cc4ccc(OCCOCCOCCNC(=O)OC(C)(C)C)cc4)sc3C)ccc21 [Compound 236, tert-butyl (2-(2-(2-(4-(2-((5-methyl-4-(1-(2-methylbenzoyl)indolin-5-yl)thiazol-2-yl)amino)-2-oxoethyl)phenoxy)ethoxy)ethoxy)ethyl)carbamate] | < 5 µM | < 5 µM
Cc1ccccc1C(=O)N1CCc2cc(-c3nc(NC(=O)Cc4cccc(OCCOCCOCCNC(=O)OC(C)(C)C)c4)sc3C)ccc21 [Compound 237, tert-butyl (2-(2-(2-(3-(2-((5-methyl-4-(1-(2-methylbenzoyl)indolin-5-yl)thiazol-2-yl)amino)-2-oxoethyl)phenoxy)ethoxy)ethoxy)ethyl)carbamate] | < 5 µM | < 5 µM
Cc1ccccc1C(=O)N1CCc2cc(-c3nc(NC(=O)Cc4cccc(OCCOCCOCCN)c4)sc3C)ccc21 [Compound 238, 2-(3-(2-(2-(2-aminoethoxy)ethoxy)ethoxy)phenyl)-N-(5-methyl-4-(1-(2-methylbenzoyl)indolin-5-yl)thiazol-2-yl)acetamide] | 5 to 25 µM | 5 to 25 µM
Cc1ccccc1C(=O)N1CCc2cc(-c3nc(NC(=O)Cc4ccc(OCCOCCOCCN)cc4)sc3C)ccc21 [Compound 239, 2-(4-(2-(2-(2-aminoethoxy)ethoxy)ethoxy)phenyl)-N-(5-methyl-4-(1-(2-methylbenzoyl)indolin-5-yl)thiazol-2-yl)acetamide] | > 25 µM | 5 to 25 µM

Further lines, results first:

IC50 [1] | IC50 [2] | SMILES
< 5 µM | > 25 µM | Cc1ncoc1C(=O)N1CCc2cc(-c3nc(NC(=O)Cc4ccc5c(c4)OCO5)sc3C)ccc21 [Compound 181]
< 5 µM | < 5 µM | Cc1ccsc1C(=O)N1CCc2cc(-c3nc(NC(=O)Cc4ccc5c(c4)OCO5)sc3C)ccc21 [Compound 182]
< 5 µM | < 5 µM | Cc1noc(C)c1C(=O)N1CCc2cc(-c3nc(NC(=O)Cc4ccc5c(c4)OCO5)sc3C)ccc21 [Compound 183]
< 5 µM | < 5 µM | Cc1sc(NC(=O)Cc2ccc3c(c2)OCO3)nc1-c1ccc2c(c1)CCN2C(=O)c1cccn1C [Compound 184]
< 5 µM | < 5 µM | Cc1sc(NC(=O)Cc2ccc3c(c2)OCO3)nc1-c1ccc2c(c1)CCN2C(=O)c1ccnn1C [Compound 185]
< 5 µM | < 5 µM | Cc1sc(NC(=O)Cc2ccc3c(c2)OCO3)nc1-c1ccc2c(c1)CCN2C(=O)c1sccc1Cl [Compound 186]
< 5 µM | < 5 µM | Cc1sc(NC(=O)Cc2ccc3c(c2)OCO3)nc1-c1ccc2c(c1)CCN2C(=O)c1c(Cl)cnn1C [Compound 187]
< 5 µM | < 5 µM | Cc1cc(Cn2ccc(C(=O)Nc3ncc(Cc4ccc(C(F)(F)F)cc4)s3)n2)ccn1 [Compound 191]
< 5 µM | < 5 µM | Cc1cc(C(=O)Nc2ncc(Cc3ccc(C(F)(F)F)cc3)s2)nn1Cc1ccccn1 [Compound 193]
< 5 µM | 5 to 25 µM | COc1ccc(CC(=O)Nc2nc(-c3ccc4c(c3)CCN4C(=O)C3CC3)c(C)s2)cc1 [Compound 195]
< 5 µM | < 5 µM | COc1ccc(CC(=O)Nc2nc(-c3ccc4c(c3)CCN4C(=O)c3cccnc3C)c(C)s2)cc1 [Compound 196]
< 5 µM | < 5 µM | COc1ccc(CC(=O)Nc2nc(-c3ccc4c(c3)CCN4C(=O)c3ccnn3C)c(C)s2)cc1 [Compound 197]
< 5 µM | < 5 µM | CC(=O)N1CCN(S(=O)(=O)c2ccc(NC(=O)c3ccc(CN4CCc5ccccc5C4)cc3)cc2)CC1 [Compound 198]
< 5 µM | < 5 µM | CCOC(=O)N1CCN(S(=O)(=O)c2ccc(NC(=O)c3ccc(CN4CCc5ccccc5C4)cc3)cc2)CC1 [Compound 199]
< 5 µM | < 5 µM | O=C(Nc1ccc(S(=O)(=O)N2CCOCC2)cc1)c1ccc(CN2CCN(c3ccccc3)CC2)cc1 [Compound 203]
< 5 µM | < 5 µM | O=C(Nc1ccc(S(=O)(=O)N2CCOCC2)cc1)c1ccc(CN2Cc3ccccc3C2)cc1 [Compound 204]
< 5 µM | < 5 µM | O=C(Nc1ccc(S(=O)(=O)N2CCOCC2)cc1)c1ccc(CN2CCC(c3ccccc3)CC2)cc1 [Compound 205]
< 5 µM | < 5 µM | CC1Cc2ccccc2CN1Cc1ccc(C(=O)Nc2ccc([S+](=O)([O-])N3CCOCC3)cc2)cc1 (centres unmarked) [Compound 206]
< 5 µM | < 5 µM | COc1ccc(CC(=O)Nc2nc(-c3ccc4c(c3)CCN4C(=O)C3CC3C)c(C)s2)cc1 (centres unmarked) [Compound 208]
< 5 µM | 5 to 25 µM | Cc1ccccc1C(=O)N1CCc2cc(-c3nc(NC(=O)CCc4ccccc4)sc3C)ccc21 [Compound 210]
< 5 µM | < 5 µM | Cc1ccccc1C(=O)N1CCc2cc(-c3nc(NC(=O)CN4CCN(C(=O)C5CC5)CC4)sc3C)ccc21 [Compound 212]
< 5 µM | < 5 µM | O=C(Nc1ncc(Cc2ccccc2F)s1)c1ccn(-c2ccccc2)n1 [Compound 215]
< 5 µM | 5 to 25 µM | COc1cccc(Cc2cnc(NC(=O)c3ccn(-c4ccccc4)n3)s2)c1 [Compound 219]
